Patent US20230011869A1 (Hoffmann-La Roche Inc., priority 2018, published 2023)
Counter-ions that a name gives are not always drawn.

tested on: Acinetobacter baumannii ATCC17961; assay: Antimicrobial susceptibility testing: 90% growth inhibitory concentration (IC90) determination, Iso-Sensitest broth; format: cell-based; conditions: 90% growth inhibitory concentration, Acinetobacter baumannii ATCC17961, Iso-Sensitest broth, OD 600 nm over 16 h; read-out: ATCC17961 IC90
In short: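 Twofold serial dilutions (e.g. 50 to 0.097 μM final) in Iso-Sensitest broth, inoculum 5×10^(5) CFU/ml, incubated at 35±2° C. OD600 read every 20 minutes over 16 h; IC90 derived from growth inhibition during logarithmic phase.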

| SMILES | IC90 [nM] |
| --- | --- |
| Cc1cc(Nc2nccn3c(-c4ccc(OCC#N)c(F)c4Cl)cnc23)ccc1C(=O)N1CCN(C(=O)[C@@H]2C[C@@H](O)CN2)CC1 [Example 251, 2-[3-chloro-2-fluoro-4-[8-[4-[4-[(2S,4R)-4-hydroxypyrrolidine-2-carbonyl]piperazine-1-carbonyl]-3-methylanilino]imidazo[1,2-a]pyrazin-3-yl]phenoxy]acetonitrile] | 80 |
| COc1ccc(-c2cnc3c(Nc4ccc(C(=O)N5CCC(CN)CC5)c(C)c4)nccn23)cc1 [Example 293, [4-(aminomethyl)piperidin-1-yl]-[4-[[3-(4-methoxyphenyl)imidazo[1,2-a]pyrazin-8-yl]amino]-2-methylphenyl]methanone] | 141 |

same assay, conditions: Acinetobacter baumannii, ATCC17961, 16 h, 90% growth inhibitory concentration, Acinetobacter baumannii ATCC17961, Iso-Sensitest broth, OD 600 nm over 16 h; read-out: ATCC17961 IC90

| SMILES | IC90 [nM] |
| --- | --- |
| Cc1cc(Nc2nccn3c(-c4ccc(OCC#N)c(Cl)c4F)cnc23)ccc1C(=O)N1CCN(C(=O)[C@@H]2C[C@@H](O)CN2)CC1 [Example 283, 2-[2-chloro-3-fluoro-4-[8-[4-[4-[(2S,4R)-4-hydroxypyrrolidine-2-carbonyl]piperazine-1-carbonyl]-3-methylanilino]imidazo[1,2-a]pyrazin-3-yl]phenoxy]acetonitrile] | 51 |
| COc1ccc(-c2cnc3c(Nc4ccc(C(=O)N5CCN(C(=O)[C@@]6(O)CNCC[C@@H]6O)CC5)c(C)c4)nccn23)c(F)c1F [Example 287, [4-[[3-(2,3-difluoro-4-methoxyphenyl)imidazo[1,2-a]pyrazin-8-yl]amino]-2-methylphenyl]-[4-[(3R,4S)-3,4-dihydroxypiperidine-3-carbonyl]piperazin-1-yl]methanone] | 80 |
| COc1ccc(-c2cnc3c(Nc4ccc(C(=O)N5CCC(C(=O)NC[C@H](O)[C@@H](O)CN)CC5)c(C)c4)nccn23)c(F)c1F [Example 294, N-[(2S,3S)-4-amino-2,3-dihydroxybutyl]-1-[4-[[3-(2,3-difluoro-4-methoxyphenyl)imidazo[1,2-a]pyrazin-8-yl]amino]-2-methylbenzoyl]piperidine-4-carboxamide] | 160 |
| COc1ccc(-c2cnc3c(Nc4ccc(C(=O)N5CCN(C(=O)[C@]6(O)C[C@@H](O)[C@@H](O)[C@H](O)C6)CC5)c(C)c4)nccn23)c(F)c1F [Example 295, [4-[[3-(2,3-difluoro-4-methoxyphenyl)imidazo[1,2-a]pyrazin-8-yl]amino]-2-methylphenyl]-[4-[(3R,5R)-1,3,4,5-tetrahydroxycyclohexanecar-bonyl]piperazin-1-yl]methanone] | 171 |
| COc1ccc(-c2cnc3c(Nc4ccc(C(=O)N5CCN(S(=O)(=O)[C@H]6CCNC6)CC5)c(C)c4)nccn23)c(F)c1F [Example 297, [4-[[3-(2,3-difluoro-4-methoxyphenyl)imidazo[1,2-a]pyrazin-8-yl]amino]-2-methylphenyl]-[4-[(3S)-pyrrolidin-3-yl]sulfonylpiperazin-1-yl]methanone] | 192 |
| CC[C@]1(O)CN[C@H](C(=O)N2CCN(C(=O)c3ccc(Nc4nccn5c(-c6ccc(OC)c(F)c6)cnc45)cc3C)CC2)C1 [Example 464, [4-[(2S,4R)-4-ethyl-4-hydroxypyrrolidine-2-carbonyl]piperazin-1-yl]-[4-[[3-(3-fluoro-4-methoxyphenyl)imidazo[1,2-a]pyrazin-8-yl]amino]-2-methylphenyl]methanone; for-mic acid] | 137 |
| CCc1cc(Nc2nccn3c(-c4ccc(OC)c(F)c4F)cnc23)ccc1C(=O)N1CCNCC1 [Example 466] | 175 |
| COc1ccc(-c2cnc3c(Nc4ccc(C(=O)N5CCN(C(=O)[C@H](CCCN)NC(=O)[C@@H](N)CCC(=O)O)CC5)c(C)c4)nccn23)c(F)c1F [Example 535, (4S)-4-amino-5-[[2S)-5-amino-1-[4-[4-[[3-(2,3-difluoro-4-methoxyphenyl)imidazo[1,2-a]pyrazin-8-yl]amino]-2-methylbenzoyl]piperazin-1-yl]-1-oxopentan-2-yl]amino]-5-oxopentanoic acid; hydrochloride] | 1920 |
| Cc1cc(Nc2nccn3c(-c4ccc(OCC#N)c(F)c4Cl)cnc23)ccc1C(=O)N1CCC(C(=O)N2CCN[C@H](CO)C2)CC1 [Example 538, 2-[3-chloro-2-fluoro-4-[8-[4-[4-[(3S)-3-(hydroxymethyl)piperazine-1-carbonyl]piperidine-1-carbonyl]-3-methylanilino]imidazo[1,2-a]pyrazin-3-yl]phenoxy]acetonitrile; for-mic acid] | 88 |
| Cc1cc(Nc2nccn3c(-c4ccc(OCC#N)c(F)c4F)cnc23)ccc1C(=O)N1CCN(C(=O)CN(C)C)CC1 [Example 545, 2-[4-[8-[4-[4-[2-(dimethylamino)acetyl]piper-azine-1-carbonyl]-3-methylanilino]imidazo[1,2-a]pyrazin-3-yl]-2,3-difluorophenoxy]acetonitrile; formic acid] | 38 |

same assay, conditions: Acinetobacter baumannii, ATCC17961, 16 h, read-out: ATCC17961 IC90

| SMILES | IC90 [nM] |
| --- | --- |
| Cc1cc(Nc2nccn3c(-c4ccc(OC(F)F)cc4)cnc23)ccc1C(=O)N1CCC(C(=O)N[C@H]2CCNC2)CC1 [Example 279, 1-[4-[[3-[4-(difluoromethoxy)phenyl]imi-dazo[1,2-a]pyrazin-8-yl]amino]-2-methylbenzoyl]-N-[(3S)-pyrrolidin-3-yl]piperidine-4-carboxamide; hydrochloride] | 1340 |
| COc1ccc(-c2cnc3c(Nc4ccc(C(=O)N5CCN(C(=O)[C@@H]6C[C@H](C)CN6)CC5)c(C)c4)nccn23)c(F)c1F [Example 282, [4-[[3-(2,3-difluoro-4-methoxyphenyl)imidazo[1,2-a]pyrazin-8-yl]amino]-2-methylphenyl]-[4-[(2S,4S)-4-methylpyrrolidine-2-carbonyl]piperazin-1-yl]methanone; hydrochloride] | 72 |
| COc1ccc(-c2cnc3c(Nc4ccc(C(=O)N5CCN(C(=O)[C@@H]6C[C@@H](CO)CN6)CC5)c(C)c4)nccn23)c(F)c1F [Example 284, [4-[[3-(2,3-difluoro-4-methoxyphenyl)imidazo[1,2-a]pyrazin-8-yl]amino]-2-methylphenyl]-[4-[(2S,4R)-4-(hydroxymethyl)pyrrolidine-2-carbonyl]piperazin-1-yl]methanone; hydrochloride] | 49 |
| COc1ccc(-c2cnc3c(Nc4ccc(C(=O)N5CCN(C(=O)[C@]6(O)CNCC[C@H]6O)CC5)c(C)c4)nccn23)c(F)c1F [Example 288, [4-[[3-(2,3-difluoro-4-methoxyphenyl)imidazo[1,2-a]pyrazin-8-yl]amino]-2-methylphenyl]-[4-[(3S,4R)-3,4-dihydroxypiperidine-3-carbonyl]piperazin-1-yl]methanone; hydrochloride] | 88 |
| COc1ccc(-c2cnc3c(Nc4ccc(C(=O)N5CCN(C(=O)N6CCN[C@@H]([C@@H](C)O)C6)CC5)c(C)c4)nccn23)c(F)c1F [Example 289, [4-[[3-(2,3-difluoro-4-methoxyphenyl)imidazo[1,2-a]pyrazin-8-yl]amino]-2-methylphenyl]-[4-[(3R)-3-[(1R)-1-hydroxyethyl]piperazine-1-carbonyl]piperazin-1-yl]methanone; hydrochloride] | 89 |
| COc1ccc(-c2cnc3c(Nc4ccc(C(=O)N5CCN(C(=O)[C@@]6(O)CNCC[C@@H]6O)CC5)c(C)c4)nccn23)c(F)c1F [Example 290, [4-[[3-(2,3-difluoro-4-methoxyphenyl)imidazo[1,2-a]pyrazin-8-yl]amino]-2-methylphenyl]-[4-[(3R,4S)-3,4-dihydroxypiperidine-3-carbonyl]piperazin-1-yl]methanone; hydrochloride] | 109 |
| COc1ccc(-c2cnc3c(Nc4ccc(C(=O)N5CCC(C(=O)N6CCN[C@@H]([C@@H](C)O)C6)CC5)c(C)c4)nccn23)c(F)c1F [Example 292, [4-[[3-(2,3-difluoro-4-methoxyphenyl)imidazo[1,2-a]pyrazin-8-yl]amino]-2-methylphenyl]-[4-[(3R)-3-[(1R)-1-hydroxyethyl]piperazine-1-carbonyl]piperidin-1-yl]methanone; hydrochloride] | 123 |
| COc1ccc(-c2cnc3c(Nc4ccc(C(=O)N5CCN(C(=O)[C@@H]6C[C@](C)(O)CN6)CC5)c(C)c4)nccn23)c(F)c1F [Example 455, [4-[[3-(2,3-difluoro-4-methoxyphenyl)imidazo[1,2-a]pyrazin-8-yl]amino]-2-methylphenyl]-[4-[(2S,4S)-4-hydroxy-4-methylpyrrolidine-2-carbonyl]piperazin-1-yl]methanone; formic acid] | 66 |
| COc1ccc(-c2cnc3c(Nc4ccc(C(=O)N5CCN(C(=O)[C@@H]6C[C@](C)(O)CN6)CC5)c(C)c4)nccn23)cc1F [Example 461, [4-[[3-(3-fluoro-4-methoxyphenyl)imidazo[1,2-a]pyrazin-8-yl]amino]-2-methylphenyl]-[4-[(2S,4S)-4-hydroxy-4-methylpyrrolidine-2-carbonyl]piperazin-1-yl]methanone; formic acid] | 148 |
| COc1ccc(-c2cnc3c(Nc4ccc(C(=O)N5CCN(C(=O)[C@@H]6C[C@@](C)(O)CN6)CC5)c(C)c4)nccn23)cc1F [Example 463, [4-[[3-(3-fluoro-4-methoxyphenyl)imidazo[1,2-a]pyrazin-8-yl]amino]-2-methylphenyl]-[4-[(2S,4R)-4-hydroxy-4-methylpyrrolidine-2-carbonyl]piperazin-1-yl]methanone; formic acid] | 132 |
| COc1ccc(-c2cnc3c(Nc4ccc(C(=O)N5CCN(C(=O)CC[C@H](NC(=O)[C@@H](N)CCCCN)C(=O)O)CC5)c(C)c4)nccn23)c(F)c1F [Example 531, (2S)-2-[[(2S)-2,6-diaminohexanoyl]amino]-5-[4-[4-[[3-(2,3-difluoro-4-methoxyphenyl)imidazo[1,2-a]pyrazin-8-yl]amino]-2-methylbenzoyl]piperazin-1-yl]-5-oxopentanoic acid; hydrochloride] | 686 |
